From patent US11939308B2, “Biphenyl derivative compound and use thereof” (EWHA UNIVERSITY—INDUSTRY COLLABORATION FOUNDATION, priority 2018, dated 2024) come the findings set out here.

Test [1] deals with recombinant Nm23-H1 (Homo sapiens, UniProt P15531). Nature of the test: NDPK assay with recombinant Nm23-H1. The class given is biochemical. Details: NDPK activity: unit not given here. As to conditions: for NDPK activity: 5 ng recombinant Nm23-H1, 10 min room temperature, then 5 μM ADP 1 min, compound concentration not given. As to the method: NDPK assay was performed by incubating 5 ng of recombinant Nm23-H1 with each of test compounds (Examples 1 to 3) in NDPK assay buffer (20 mM HEPES, 3 mM MgCl2) at room temperature for 10 minutes, followed by reaction with 5 μM ADP for 1 minute.

In test [2] the test system is MDA-MB-231 cells. Nature of the test: Immunofluorescent staining assay (F-actin localization). The class given is cell-based. To be noted: Rhodamine-Phalloidin staining, various times. As to the method: MDA-MB-231 cells were grown on the Secureslip™ (Sigma) cell culture glass cover slip to a confluence of 50 to 70%, and then treated with or without the compound of Example 1 (B038) for various times. The cells were gently washed with cold HBSS, and then fixed with 4% paraformaldehyde-containing HBSS […] for 10 minutes at room temperature. After washing with HBSS, permeabilization with 0.1% Triton X-100 was performed for 10 minutes at room temperature. After washing twice with HBSS, the cells were blocked with 3% BSA, 0.2% Tween20 and 0.2% gelatin in HBSS for 1 hour at room temperature, and incubated with primary antibody at 37° C. for 2 hours. F-actin was stained by Rhodamine-Phalloidin (Thermo Fisher Scientific) for 2 hours at 37° C., followed by washing 3 times with HBSS for 20 minutes. Coverslips were mounted with an anti-fading solution and viewed using an ×63 objective lens of an LSM510 META (Zeiss) laser scanning confocal microscope.

The test system of test [3] is MDA-MB-231 cells. Nature of the test: Matrigel invasion assay. It counts as cell-based. As to conditions: Transwell with Matrigel, 24 hours at 37° C. As to the method:
Invasion assay was performed using a Transwell® unit (Corning, USA) with a polycarbonate membrane (pore size: 8 μm), with or without Matrigel coating. The membrane was coated with 50 μg Matrigel™-based membrane matrix (BD Bioscience, USA). 5×10^4 MDA-MB-231 cells were seeded into the upper chamber in a serum-free medium together with the compound of Example 1, and the lower chamber was filled with a medium containing 10% FBS. After incubation for 24 hours at 37° C., the cells on the upper side of the membrane were removed. The cells invading to the underside of the membrane were stained with 0.5% Crystal violet in 25% methanol and counted at 100-fold magnification under a microscope.

Chain of recombinant Nm23-H1 (P15531 whole entry): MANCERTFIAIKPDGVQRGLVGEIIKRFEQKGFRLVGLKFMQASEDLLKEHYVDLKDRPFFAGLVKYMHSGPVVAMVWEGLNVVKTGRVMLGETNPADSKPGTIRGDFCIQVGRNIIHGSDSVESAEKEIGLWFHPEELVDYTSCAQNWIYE

Turning to `COc1ccc(CCc2ccccc2-c2ccc(OC)c(OC)c2)cc1OC` [Example 1], the NDPK activity in test [1] is on record as 6.55. Moreover, in test [1] (various concentrations), the “NDPK activity-increasing effect at various concentrations (FIG. 1)” value is “excellent effect of increasing NDPK activity even at low concentrations”. Also, the “localization of F-actin (ruffles, cell-to-cell contact; FIG. 3)” value in test [2] is “ruffles decreased and cell-to-cell contact increased”. Also, the “cell invasion (counting invaded cells, FIGS. 2A and 2B)” value in test [3] is recorded as “significantly suppressed cell invasion”.

Turning to `COc1ccc(-c2ccccc2C2OC2c2ccc(OC)c(OC)c2)cc1OC` (centres unmarked) [Example 2, 2-(3′,4′-dimethoxy-[1,1′-biphenyl]-2-yl)-3-(3,4-dimethoxyphenyl)oxirane], the NDPK activity in test [1] was 4.08.

For `COc1ccc(NC(=O)c2ccccc2-c2ccc(OC)c(OC)c2)cc1OC` [Example 3, N-(3,4-dimethoxyphenyl)-3′,4′-dimethoxy-[1,1′-biphenyl]-2-carboxamide], the NDPK activity in test [1] is 1.32.

`COc1ccc(C(=O)Nc2ccccc2-c2ccc(OC)c(OC)c2)cc1OC` [Example 4, N-(3′,4′-dimethoxy-[1,1′-biphenyl]-2-yl)-3,4-dimethoxybenzamide]: in test [1], the NDPK activity worked out at 1.52.

In the case of `COc1cc(-c2ccccc2CCc2ccc(OC)c(OC)c2)ccc1O` [Example 5, 2′-(3,4-dimethoxyphenethyl)-3-methoxy-[1,1′-biphenyl]-4-ol], the NDPK activity in test [1] came out at 4.

`COc1ccc(-c2ccccc2CCc2ccc(OC)c(OC)c2)cc1O` [Example 6, 2′-(3,4-dimethoxyphenethyl)-4-methoxy-[1,1′-biphenyl]-3-ol]: the NDPK activity in test [1] is on record as 1.9.

As to `COc1ccc(CCc2ccccc2-c2ccc(OC)c(OC)c2)cc1O` [Example 7, 5-(2-(3′,4′-dimethoxy-[1,1′-biphenyl]-2-yl)ethyl)-2-methoxyphenol], the NDPK activity in test [1] was 3.5.

For `COc1cc(CCc2ccccc2-c2ccc(OC)c(OC)c2)ccc1O` [Example 10, 4-(2-(3′,4′-dimethoxy-[1,1′-biphenyl]-2-yl)ethyl)-2-methoxyphenol], in test [1], the NDPK activity was found to be 2.6.
